Data: US9738677B2, “Amphotericin B derivative with reduced toxicity” (priority 2014, dated 2017)
≈ marks a conversion by molar mass, not a printed value.

Legend:
[1] = tested on: primary human renal proximal tubule epithelial cells; assay: WST-8 cell proliferation assay (MTC); assay type: cell-based; conditions: up to limits of solubility
Procedure: WST-8 Cell Proliferation Assays
Primary human renal proximal tubule epithelial cells (RPTECs) were purchased from ATCC (Manassas, Va.) and immediately cultured upon receipt. Complete growth media was prepared using renal epithelial cell basal medium (ATCC, PCS-400-030), renal epithelial cell growth kit (ATCC, PCS-400-040), and penicillin-streptomycin (10 units/mL and 10 μg/mL). Complete media was stored at 4° C. in the dark and used within 28 days. Primary RPTECs were grown in CO2 incubator at 37° C. with an atmosphere of 95% air/5% CO2.
WST-8 cell proliferation assay kit (Ser. No. 10/010,199) was purchased from Cayman Chemical Company (Ann Arbor, Mich.) and stored at −20° C. and used within 6 months of receipt. WST-8 reagent and electron mediator solution were thawed and mixed to prepare the WST-8 reagent solution. The solution was stored at −20° C. and used within one week.
A suspension of primary RPTECs in complete growth media was brought to a concentration of 1×10^5 cells/mL. A 96-well plate was seeded with 99 μL of the cell suspension and incubated at 37° C. with an atmosphere of 95% air/5% CO2 for 3 hours. Positive and negative controls were prepared by seeding with 100 μL of the cell suspension or 100 μL of the complete media. Compounds were prepared as 5 mM (AmB), 20 mM (C2′deOAmB), and 50 mM (C2′epiAmB) stock solutions in DMSO and serially diluted to the following concentrations with DMSO: 50000, 40000, 30000, 20000, 10000, 8000, 6000, 4000, 3000, 2000, 1500, 1000, 800, 600, 400, 300, 200, 100, 50, 25, 10, 5, 2.5, 1, 0.5, 0.25, and 0.1 μM. 1 μL aliquots of each solution were added to the 96-well plate in triplicate, with each column representing a different concentration of the test compound. The 96-well plate was incubated at 37° C. with an atmosphere of 95% air/5% CO2 for 24 hours. […] Following incubation, the 96-well plate was mixed in a shaking incubator at 200 rpm for 1 minute and absorbances were read at 450 nm using a Biotek H1 Synergy Hybrid Reader (Wanooski, Vt.). […]

S. cerevisiae = assay: Broth microdilution MIC assay; assay type: cell-based; conditions: Saccharomyces cerevisiae, 24 hours, 30° C., no visible growth
Procedure: Exemplary methods for antifungal activity assays are as follows:
S. cerevisiae was maintained with yeast peptone dextrose (YPD) growth media consisting of 10 g/L yeast extract, 20 g/L peptone, 20 g/L dextrose, and 20 g/L agar for solid media. The media was sterilized by autoclaving at 250° F. for 30 min. Dextrose was subsequently added as a sterile 40% w/v solution in water (dextrose solutions were filter sterilized). Solid media was prepared by pouring sterile media containing agar (20 g/L) onto Corning (Corning, N.Y.) 100×20 mm polystyrene plates. Liquid cultures were incubated at 30° C. on a rotary shaker and solid cultures were maintained at 30° C. in an incubator.
The protocol for the broth microdilution assay was adapted from the Clinical and Laboratory Standards Institute document M27-A2. Clinical and Laboratory Standards Institute. Reference Method for Broth Dilution Antifungal Susceptibility Testing, M27-A2, Approved Standard 2nd Ed. Vol. 22, Number 15, 2002. 50 mL of YPD media was inoculated and incubated overnight at either 30° C. (S. cerevisiae) or 37° C. (C. albicans) in a shaker incubator. The cell suspension was then diluted with YPD to an OD600 of 0.10 (˜5×10^5 cfu/mL) as measured by a Shimadzu (Kyoto, Japan) PharmaSpec UV-1700 UV/Vis spectrophotometer. […]

With C[C@@H]1[C@H](O)[C@@H](C)/C=C/C=C/C=C/C=C/C=C/C=C/C=C/[C@H](O[C@@H]2O[C@H](C)[C@@H](O)[C@H](N)[C@H]2O)CC2O[C@](O)(C[C@@H](O)C[C@@H](O)[C@H](O)CC[C@@H](O)C[C@@H](O)CC(=O)O[C@H]1C)C[C@H](O)[C@H]2C(=O)O [C2′epiAmB] the “Toxicity to primary human renal proximal tubule epithelial cells (in words)” value [1] was “no evidence of toxicity up to their limits of solubility” and the MIC (S. cerevisiae) was 2 µM (≈ 1.85 µg/mL).
